Measured values as given in US12624038B2, “Molecules and methods related to treatment of uncontrolled cellular proliferation” (ST. JUDE CHILDREN'S RESEARCH HOSPITAL, priority 2019, dated 2026).
Values joined by “and” are separate entries in the source; they are usually repeats but may differ in a detail not shown here. Identical values can stand only once. “Also recorded” adds a separate entry of the source. Like-named read-outs stand apart in the source and are kept apart here.

Experiments:
[1] = In vivo pharmacokinetic (PK) study in NSG mice; parameters: species or system mouse; details: for concentration at 24 h: read-out: Clast
Protocol: Nontumor bearing female NSG mice (n=6), aged 8-12 weeks were dosed i.p. with single dose of compound 7 at 30 mg/kg and 100 mg/kg, respectively. Compound 7 was suspended in 60% PEG400+10% DMSO+[…] and the dosing volume is 5 ml/kg to get the target dose. For each dose, three mice were injected with a single dose and blood samples were collected at 0.5, 1, 2, 4, 8 and 24 hours by retro-orbital eye bleed technique. Blood samples ([…]) were collected and compound 7 concentration levels determined by LC-MS.

Caco-2 cells = assay: Caco-2 cell permeability; assay type: in vitro ADME; details: A to B (Table 4)
Protocol: Compound Caco-2 cell permeability was determined using the Transwell® 0.4 μm polycarbonate membrane 96-well as described before (Uchida, et al. (2009) J Pharmacol Toxicol Methods 59(1): 39-43). Briefly, Caco-2 cells monolayers were incubated over 2 hours at 37° C. Fractions were collected from receivers (basal side, B), and concentrations were assessed by UPLC/MS (Waters; Milford, MA). All compounds were tested in triplicates. The A→B (or B→A) apparent permeability coefficients (Papp) of each compound were calculated using the equation, Papp=dQ/dt×1/AC0, where dQ/dt equals the flux of a drug across the monolayer, A equals the total insert well surface area, and C0 is the initial concentration of substrate in the donor compartment.

[2] = system: JAK2 and STAT5 phosphorylation; assay: In vivo pharmacodynamics, phosphoflow of JAK-STAT signaling in engrafted leukemic cells; parameters: species or system mouse; details: 10, 30 and 100 mg/kg i.p., 2 daily doses
Protocol: For pharmacodynamic studies, after engraftment, mice with >50% hCD45 cells in peripheral blood were dosed with 10, 30 or 100 mg/kg i.p. of compound 7 for 2 daily doses. One hour after the second dose, mice were euthanized, and cells collected from bone marrow and spleen. For phosphoflow cytometry analysis, 0.75×10^6 bone marrow cells in 3 ml of medium were fixed by adding 1 ml of 10% formaldehyde and incubated at room temperature for 10 minutes. The cells then were spun down at 450 g for 5 minutes and resuspended in cold 95% methanol and stored at −20° C. For immunoblotting, splenic leukemia cells were purified by hCD19 MicroBeads (Miltenyi). Cells were pelleted and total protein extracted using RIPA buffer supplemented with Halt™ Protease Inhibitor Cocktail (ThermoFisher).
Cells (7.5×105) were treated with compounds in 3 ml of IMDM containing 1% BSA for one hour followed by treatment with or without 25 ng/mL TSLP (R&D systems) for 30 minutes. Cells were fixed for 10 minutes at room temperature by adding 1 ml of 10% UltraPure Formaldehyde (Polysciences), centrifuged for 5 minutes at 450 g, resuspended in 95% methanol (Electron Microscopy Sciences) and store at −20° C. […] Cells were analyzed on BD Biosciences LSR/Fortessa (BD Biosciences, Franklin Lakes, NJ) with BD FACSDiva 7.0 software followed by FlowJo v10 (Tree Star, Inc., Ashland, OR).

[3] = system: JAK family kinases and GSPT1; assay: In vivo pharmacodynamics, immunoblotting for Janus kinases and GSPT1 in engrafted leukemic cells; parameters: species or system mouse; details: 10, 30 and 100 mg/kg i.p., 2 daily doses
Protocol: Cells were washed twice with ice-cold PBS and lysed in RIPA lysis buffer (Sigma) freshly supplemented with Halt™ Protease Inhibitor Cocktail (ThermoFisher) for 15 minutes on ice. The cell pellet was removed by centrifugation at 13,000 g at 4° C. for 15 minutes. Protein concentration was measured by BCA assay (Thermo Fisher Scientific). Proteins were denatured in NuPAGE LDS 4× sample buffer supplemented with reducing agents (Invitrogen). Typically, 10-20 μg of total protein was loaded per lane on a 4%-12% NuPAGE Bis-Tris gradient gel (Invitrogen) and analyzed by standard immunoblotting and imaged using Li-COR Odyssey CLx (LI-COR Biotechnology, Lincoln, NE). Primary antibodies used were: JAK1 (Cell Signaling #3332S), JAK2 (#3230S), JAK3 (#8827S), TYK2 (#9312S), GSPT1 (#14980S), CRBN (#71810S), IKZF1 (Santa Cruz Biotechnology, SC-398265) and ACBT (Santa Cruz Biotechnology, SC-47778).
For pharmacodynamic studies, after engraftment, mice with >50% hCD45 cells in peripheral blood were dosed with 10, 30 or 100 mg/kg i.p. of compound 7 for 2 daily doses. One hour after the second dose, mice were euthanized, and cells collected from bone marrow and spleen. For phosphoflow cytometry analysis, 0.75×10^6 bone marrow cells in 3 ml of medium were fixed by adding 1 ml of 10% formaldehyde and incubated at room temperature for 10 minutes. […]

CRLF2r B-ALL xenograft = assay: In vivo efficacy in CRLF2r B-ALL xenograft (PDX) in NSG mice; parameters: species or system mouse; details: compound 7 30 mg/kg i.p. daily
[4] = NSG mice, single dose i.p. 30 mg/kg, per mouse, 30 mg/kg
[5] = NSG mice, single dose i.p. 100 mg/kg, per mouse, 100 mg/kg
[6] = female, NSG, mouse, plasma, ip, 30 mg/kg, NSG mice, single dose i.p. 30 mg/kg, per mouse

CCCn1cc(-c2nc(Nc3ccc(C(=O)NCCCCNc4cccc5c4C(=O)N(C4CCC(=O)NC4=O)C5=O)cc3)nc3[nH]ccc23)cn1 (stereo not drawn) [Compound 7]
plasma concentration after 24 hours ([1]; 30 and 100 mg/kg, intraperitoneal dosing): well above the compounds cellular EC50 value | Tlast ([1]; NSG mice, single dose i.p. 30 mg/kg, per mouse): 24 h | AUClast [1, 4]: 1759.1 ng·h/mL and 2248.2 ng·h/mL | Clast [1, 4]: 53 ng/mL and 74.3 ng/mL | Cmax [1, 4]: 125.8 ng/mL and 155.3 ng/mL | Tlast ([1]; NSG mice, single dose i.p. 100 mg/kg, per mouse): 24 h | AUClast [1, 5]: 1884.7 ng·h/mL and 2179.3 ng·h/mL and 4459 ng·h/mL | Clast [1, 5]: 79.1 ng/mL and 152 ng/mL | Cmax [1, 5]: 181.3 ng/mL and 233.2 ng/mL and 410.5 ng/mL | AUC(0-t) [1, 6]: 1350 ng·h/mL | concentration at 24 h [1, 6]: 45.5 ng/mL | Cmax ([1]; female, NSG, mouse, plasma, ip, 30 mg/kg, NSG mice, single dose i.p. 30 mg/kg, per mouse, read-out: Cmax): 115 ng/mL | concentration at 24 h ([1]; female, NSG, mouse, plasma, ip, 100 mg/kg, NSG mice, single dose i.p. 100 mg/kg, per mouse): 98.1 ng/mL | Cac2 Papp A/B (Caco-2 cells): 19.12 nm/S | inhibition of JAK2 and STAT5 phosphorylation in vivo [2]: dose dependent inhibition | JAK/GSPT1 degradation in vivo [3]: near maximal at the 30 mg/kg dose | spleen size and tumor burden in PDX model (CRLF2r B-ALL xenograft): reduced spleen size and tumor burden | leukemia burden / leukemic cell proliferation in CRLF2r B-ALL xenograft (CRLF2r B-ALL xenograft; ruxolitinib 50 mg/kg oral gavage twice daily, 28-day dosing period): marked reduction in leukemia burden; also recorded: slowed leukemia growth
